The source of these data is patent publication US8871946B2, “Benzimidazole-4-carboxamide derivatives, their preparation methods, pharmaceutical compositions and their uses” (Zhejiang Medicine Co., Ltd. Xinchang Pharmaceutical Factory, priority 2009, dated 2014).

Converted amounts (≈) assume the structure as drawn.

The test system of this experiment is coxsackie B3 viruses. Briefly: Measures of anti-coxsackie B3 viruses activity of the compounds in Vero cells. In kind it is cell-based. Conditions: half inhibitory concentration for viruses. From the text:
Measures of Anti-Coxsackie B3 Viruses Activity of the Compounds The products are applied for measures of antivirus properties of Vero cells. Refer to the results of Table 3: datum of anti-coxsackie B3 viruses activities of some compounds. […] IC50 indicates half inhibitory concentration for viruses. RBV indicates triazole nucleoside, is also called ribavirin, virazole.

For `O=C(Nc1ccccc1F)c1cccc2[nH]c(-c3ccc4ccccc4n3)nc12` [2-(2-quinolinyl)-1H-benzimidazole-4-(N-o-fluorophenyl)amide], the “IC50” value stood at 15.3 µg/mL (≈ 40 µM).

For the compound `O=C(Nc1ccc(O)cc1)c1cccc2[nH]c(-c3ccc(O)c(O)c3O)nc12` [2-(2,3,4-trihydroxyphenyl)-1H-benzimidazole-4-(N-p-hydroxyphenyl)amide], the “IC50” value was determined as 11.2 µg/mL (≈ 29.7 µM). The IC50 values of the last two compounds are within 1.5-fold of each other. The figure for `Nc1ccc(NC(=O)c2cccc3[nH]c(-c4cccnn4)nc23)cc1` [2-(3-pyridazinyl)-1H-benzimidazole-4-(N-p-aminophenyl)amide] is 10.2 µg/mL (≈ 30.9 µM). For `O=C(Nc1ccccc1O)c1cccc2[nH]c(-c3cnc(-c4ccccc4)nc3)nc12` [2-(2-phenyl-5-pyrimidinyl)-1H-benzimidazole-4-(N-o-hydroxyphenyl)amide], the “IC50” value is 13.2 µg/mL (≈ 32.4 µM). Consider `O=C(NC(CO)C(O)c1ccc([N+](=O)[O-])cc1)c1cccc2[nH]c(-c3nccs3)nc12` (centres unmarked) [(L)-2-thiazolyl-1H-benzimidazole-4-[N-(1-hydroxymethyl-2-p-nitrophenylhydroxyethyl)]amide], for which the “IC50” value stood at 11.2 µg/mL (≈ 25.5 µM). The IC50 values of the last two compounds are within 1.5-fold of each other. For `CC(NC(=O)c1cccc2[nH]c(-c3ccccn3)nc12)C(O)c1ccc(Cl)cc1` (centres unmarked) [2-(2-pyridyl)-1H-benzimidazole-4-[N-(1-methyl-2-p-chlorophenylhydroxyethyl)]amide], the “IC50” value turned out to be 4.115 µg/mL (≈ 10.1 µM).

For `CC(NC(=O)c1cccc2[nH]c(-c3cccnc3)nc12)C(O)c1ccc(Cl)cc1` (centres unmarked) [2-(3-pyridyl)-1H-benzimidazole-4-[N-(1-methyl-2-p-chlorophenylhydroxyethyl)]amide], the “IC50” value came out at 2.37 µg/mL (≈ 5.82 µM). To `Cc1nc(-c2nc3c(C(=O)Nc4ccc(N)cc4)cccc3[nH]2)sc1N` [2-(4-methyl-5-aminothiazolyl)-1H-benzimidazole-4-(N-p-aminophenyl)amide] belongs 9.8 µg/mL (≈ 26.9 µM). `Nc1ncnc(Cl)c1-c1nc2c(C(=O)NC(CO)C(O)c3ccc([N+](=O)[O-])cc3)cccc2[nH]1` (centres unmarked) [(L)-2-(4-amino-6-chloro-5-pyrimidinyl)-1H-benzimidazole-4-[N-(1-hydroxymethyl-2-p-nitrophenylhydroxyethyl)]amide]: the “IC50” value came out at 17.2 µg/mL (≈ 35.5 µM).

In the case of “2-(2-N-methyl-4-N- methylpiperazinyl)-1H- benzimidazole-4-(N-o- fluorophenyl)amide”, the “IC50” value came out at 8.9 µg/mL.

Consider `Nc1ccc(-c2nc3c(C(=O)Nc4ccccc4F)cccc3[nH]2)s1` [2-(5-amino-2-thienyl)-1H-benzimidazole-4-(N-o-fluorophenyl)amide], for which the “IC50” value is 3.5 µg/mL (≈ 9.93 µM). Against the preceding compound, the IC50 is about 2.5-fold lower. For the compound `Nc1ccc(-c2nc3c(C(=O)NC(CO)C(O)c4ccc([N+](=O)[O-])cc4)cccc3[nH]2)s1` (centres unmarked) [(L)-2-(5-amino-2-thienyl)-1H-benzimidazole-4-[N-(1-hydroxymethyl-2-p-nitrophenylhydroxyethyl)]amide], the half-inhibitory concentration (IC50) worked out at 2.3 µg/mL (≈ 5.07 µM). To `O=C(NC(CO)C(O)c1ccc([N+](=O)[O-])cc1)c1cccc2[nH]c(-c3cnc(-c4ccccc4)nc3)nc12` (centres unmarked) [(L)-2-(2-phenyl-5-pyrimidinyl)-1H-benzimidazole-4-[N-(1-hydroxymethyl-2-p-nitrophenylhydroxyethyl)]amide] belongs 12.0 µg/mL (≈ 23.5 µM). For the compound `O=C(NC(CO)C(O)c1ccc([N+](=O)[O-])cc1)c1cccc2[nH]c(-c3cnccn3)nc12` (centres unmarked) [(L)-2-(2-pyrazinyl)-1H-benzimidazole-4-[N-(1-hydroxymethyl-2-p-nitrophenylhydroxyethyl)]amide], the “IC50” value is 2.3 µg/mL (≈ 5.29 µM).

In the case of `O=C(NC(CO)C(O)c1ccc([N+](=O)[O-])cc1)c1cccc2[nH]c(-c3ccccn3)nc12` (centres unmarked) [(L)-2-(2-pyridyl)-1H-benzimidazole-4-[N-(1-hydroxymethyl-2-p-nitrophenylhydroxyethyl)]amide], the “IC50” value amounted to 1.76 µg/mL (≈ 4.06 µM). This IC50 and that of the compound before are within 1.5-fold of each other. Turning to `Cn1cccc1-c1nc2c(C(=O)NC(CO)C(O)c3ccc([N+](=O)[O-])cc3)cccc2[nH]1` (centres unmarked) [(L)-2-(N-methyl-2-pyrrolyl)-1H-benzimidazole-4-[N-(1-hydroxymethyl-2-p-nitrophenylhydroxyethyl)]amide], the half-inhibitory concentration (IC50) turned out to be 11.1 µg/mL (≈ 25.5 µM). On to `COc1ccnc(-c2nc3c(C(=O)NC(CO)C(O)c4ccc([N+](=O)[O-])cc4)cccc3[nH]2)c1` (centres unmarked) [(L)-2-(4-methoxypyridyl)-1H-benzimidazole-4-[N-(1-hydroxymethyl-2-p-nitrophenylhydroxyethyl)]amide], for which the “IC50” value stood at 6.3 µg/mL (≈ 13.6 µM). For the compound `Nc1ccc(NC(=O)c2cccc3[nH]c(-c4cnc(-c5ccccc5)nc4)nc23)cc1` [2-(2-phenyl-5-pyrimidinyl)-1H-benzimidazole-4-(N-p-aminophenyl)amide], the “IC50” value amounted to 15.2 µg/mL (≈ 37.4 µM). As for `O=C(NC(CO)C(O)c1ccc([N+](=O)[O-])cc1)c1cccc2[nH]c(-c3ncccn3)nc12` (centres unmarked) [(L)-2-(2-pyrimidinyl)-1H-benzimidazole-4-[N-(1-hydroxymethyl-2-p-nitrophenylhydroxyethyl)]amide], the “IC50” value turned out to be 9.8 µg/mL (≈ 22.6 µM). As for `Nc1ncnc(Cl)c1-c1nc2c(C(=O)Nc3ccccc3O)cccc2[nH]1` [2-(4-amino-6-chloro-5-pyrimidinyl)-1H-benzimidazole-4-(N-o-hydroxyphenyl)amide], the “IC50” value was 12.3 µg/mL (≈ 32.3 µM). To `Nc1ccc(NC(=O)c2cccc3[nH]c(-c4c[nH]c5ccccc45)nc23)cc1` [2-(3-indolyl)-1H-benzimidazole-4-(N-p-aminophenyl)amide] belongs 10.8 µg/mL (≈ 29.4 µM); to `O=C(Nc1ccccc1F)c1cccc2[nH]c(-c3cnc(-c4ccccc4)nc3)nc12` [2-(2-phenyl-5-pyrimidinyl)-1H-benzimidazole-4-(N-o-fluorophenyl)amide], 12.6 µg/mL (≈ 30.8 µM). For `Nc1ccc(NC(=O)c2cccc3[nH]c(-c4cnccn4)nc23)cc1` [2-(2-pyrazinyl)-1H-benzimidazole-4-(N-p-aminophenyl)amide], the concentration for half-maximal inhibition (IC50) was 4.2 µg/mL (≈ 12.7 µM). This IC50 lies about 3-fold lower than the previous one.
